Data taken from PubChem BioAssay AID1549 (Sanford-Burnham Center for Chemical Genomics, 2009).
Activity calls are given as the source filed them. No rule for the calls is given here.

target: Influenza A virus M2 proton channel (A/TW/4845/1999 H1N1); assay: NMR binding screen, influenza A virus M2 proton channel, Kd (AID 1549); settings: M2 protein

SMILES	Kd
CC1=NN2C(=N)/C(=C\c3cccs3)C(=O)N=C2S1	> 4 mM (inactive)
COc1ccc(-c2c(C)n([O-])c(C)c(C)[n+]2=O)cc1	> 4 mM (inactive)
Cc1[nH]ccc2c1[nH]c1cc(=O)ccc12	> 4 mM (inactive)
Cc1n[nH]c(=S)n(/N=C/c2cccs2)c1=O	> 4 mM (inactive)
CNC(=O)c1cccc(NC(=S)NC)c1	> 4 mM (inactive)
CC(C)(O)P(C)(=O)c1ccccc1 (configuration not stated)	> 4 mM (inactive)
O=C(O)c1ccc2c(c1)CCO2	> 4 mM (inactive)
OCC12COC3c4ccccc4C(OC1)N32 (configuration not stated)	> 4 mM (inactive)
CCOC(=O)c1csc(C2COc3ccccc3O2)n1 (configuration not stated)	> 4 mM (inactive)
COc1ccc(C(=O)CC(=O)O)c2c1C=CC(C)(C)O2	> 4 mM (inactive)
COC(=O)N1CCN(c2ccc(C(C)=O)cc2)CC1	> 4 mM (inactive)
c1cc(CNc2ccc3c(c2)OCCO3)ccn1	> 4 mM (inactive)
CCCc1nc2ccccc2c2nc(N)nn12	> 4 mM (inactive)
C=C(C)[C@H]1CC=C(C(=O)O)CC1	> 4 mM (inactive)
O=C1NCCCC1C(=O)N1CCCCC1 (configuration not stated)	> 4 mM (inactive)
Cc1nc(-c2ccc(C(=O)N3CCOCC3)cc2)cs1	> 4 mM (inactive)
c1ccc(C[N+]23CCN(CC2)c2ccccc23)cc1	> 4 mM (inactive)
CCOc1ccc(C)cc1S(=O)(=O)n1ccc(C)n1	> 4 mM (inactive)
COc1cc([C@@H]2c3cc4c(cc3[C@H](O)[C@H]3COC(=O)[C@@H]23)OCO4)cc(OC)c1OC	> 4 mM (inactive)
NC(c1ccccc1)c1ccccn1 (configuration not stated)	> 4 mM (inactive)
O=C(Oc1ccc(-c2nnco2)cc1)N1CCOCC1	> 4 mM (inactive)
CN1CCN(c2ccc(CN)cc2)CC1	> 4 mM (inactive)
Cc1nn(C)c2sc(C(=O)O)cc12	> 4 mM (inactive)
COC1=CC(=O)C(O)=C/C1=C\C=C\c1ccccc1	> 4 mM (inactive)

SMILES	Kd
O=C(O)CCn1cncn1	> 4 mM (inactive)
O=C(O)CCC1NCC2CC1CN1CCCCC21 (configuration not stated)	> 4 mM (inactive)
COc1cc2c(cc1OC)-c1nnnn1C(C)(C)C2	> 4 mM (inactive)
COC(=O)c1oc2ccc(Cl)cc2c1NC(C)=O	> 4 mM (inactive)
CNC(=O)Cn1c(=O)n(C)c2ccccc21	> 4 mM (inactive)
CC(CCC(=O)O)[C@H]1CCC2C3CC[C@@H]4C[C@H](O)CC[C@]4(C)C3CC[C@@]21C (some centres not stated)	> 4 mM (inactive)
O=C1C2C3CCC(O3)C2C(=O)N1c1ccccc1 (configuration not stated)	> 4 mM (inactive)
C/C(=N\NC(N)=S)C(=O)O	> 4 mM (inactive)
CS(=O)(=O)c1nncn1-c1ccccc1	> 4 mM (inactive)
Cc1nc2nc(-c3ccco3)nn2c(C)c1Cl	> 4 mM (inactive)
COc1ccc(-c2ccc(SCC(N)=O)nn2)cc1	> 4 mM (inactive)
c1ccc(Cn2c(Nn3cnnc3)nc3ccccc32)cc1	> 4 mM (inactive)
Cc1ccc(CCC(N)=O)o1	> 4 mM (inactive)
CCOC(=O)c1sc(SC)c2c1CCCC2O (configuration not stated)	> 4 mM (inactive)
COC(=O)CC1C(C)(C)C(OC(C)=O)[C@@H]2[C@@H](OC(C)=O)[C@]34O[C@@]2(O)[C@]1(C)C3CC[C@]1(C)C4=CC(=O)O[C@H]1c1ccoc1 (some centres not stated)	> 4 mM (inactive)
OCc1nccn1Cc1ccccc1	> 4 mM (inactive)
CCC(=O)n1nc(-c2ccco2)nc1N	> 4 mM (inactive)
CC(=O)Oc1ccc(-c2nc(-c3cccnc3)no2)cc1	> 4 mM (inactive)
Nc1ccc(N2CCCCC2)cc1	> 4 mM (inactive)
C=C[C@@H](C1=CC(=O)C(OC)=C(OC)C1=O)c1ccccc1	> 4 mM (inactive)
CCC1C(=O)OCC1Cc1cncn1C (configuration not stated)	> 4 mM (inactive)
Nc1c(F)c(F)nc(F)c1F	> 4 mM (inactive)
NC(=O)CSc1ccccn1	> 4 mM (inactive)
C[C@@H]1CC[C@H]2[C@@H](C)C(=O)O[C@@H]3OC4(C)CC[C@@H]1[C@]32OO4	> 4 mM (inactive)

SMILES	Kd
CN(C)c1nc(N)nc(-c2nc3ccccc3s2)n1	> 4 mM (inactive)
CCN1C(=O)c2cccc3c(S(N)(=O)=O)ccc1c23	> 4 mM (inactive)
CC(=O)NC(C)(C)C1CC=C(C)/C(=N\O)C1 (configuration not stated)	> 4 mM (inactive)
CC(=O)Nc1ccncc1NC(C)=O	> 4 mM (inactive)
CC1(C)N=C2C(=[N+]1[O-])CCC/C2=N\O	> 4 mM (inactive)
Cc1ccc(-c2nnn(CC(=O)O)n2)cc1	> 4 mM (inactive)
CNC(=O)c1ccc([N+](=O)[O-])cc1Cl	> 4 mM (inactive)
O=C(Nc1c[nH]c(=O)[nH]c1=O)c1ccccc1F	> 4 mM (inactive)
OCc1ccc2c(c1)OCO2	> 4 mM (inactive)
CC(C)=NNC(=O)C(=O)Nc1ccc(F)cc1	> 4 mM (inactive)
O=C1CS/C(=N/N=C/c2cccs2)N1	> 4 mM (inactive)
O=C1C2CC=CCC2C(=O)N1c1ccccc1 (configuration not stated)	> 4 mM (inactive)
NCc1ccc(-n2cccn2)cc1	> 4 mM (inactive)
C=C[C@@](C)(O)CCC1C(=C)C[C@H](O)C2C(C)(C)CCCC12C (some centres not stated)	> 4 mM (inactive)
Cc1nc(N2CCOCC2)[nH]c(=O)c1C	> 4 mM (inactive)
OCc1ccc2nonc2c1	> 4 mM (inactive)
O=C(NC(=S)NC1CCSC1=O)c1ccco1 (configuration not stated)	> 4 mM (inactive)
O=C(O)c1cnn2ccccc12	> 4 mM (inactive)
Cc1nc2sccn2c1C(=O)O	> 4 mM (inactive)
COC(=O)[C@@]1(C)CCC[C@]2(C)c3ccc(O)c(C(C)C)c3CCC12 (some centres not stated)	> 4 mM (inactive)
N[C@@H](Cc1ccc(O)c(O)c1)C(=O)O	> 4 mM (inactive)
CCNC(CC(=O)Nc1ccc(O)cc1)C(=O)O (configuration not stated)	> 4 mM (inactive)
CC(NC(=O)c1ccco1)c1ccc2c(c1)OCCO2 (configuration not stated)	> 4 mM (inactive)
O=c1sc2ccccc2n1CN1CCOCC1	> 4 mM (inactive)

SMILES	Kd
CN(C)c1ccc(C2CC(=O)CC(=O)C2)cc1	> 4 mM (inactive)
O=c1[nH]cc(NC(=S)N2CCOCC2)c(=O)[nH]1	> 4 mM (inactive)
O=C(Nc1ccccn1)c1cc(-n2cnnc2)ccc1Cl	> 4 mM (inactive)
CCCNC(=O)CSc1ncccc1C(=O)O	> 4 mM (inactive)
O=C(O)c1cc(=O)[nH]c2ccccc12	> 4 mM (inactive)
NC(=O)c1cc(N)cc(C(N)=O)c1	> 4 mM (inactive)
COC(=O)CSc1ncnc2c(C)csc12	> 4 mM (inactive)
CCC(C)C(=O)O[C@@H]1C[C@@]2(C)[C@H](c3ccoc3)OC(=O)CC23OC2(C)OC34[C@H](OC(=O)C(C)C)[C@@]3(O)[C@@H](OC(=O)C5(C)OC5C)[C@@]5(C)C[C@]3(O)[C@@](C)([C@H]5CC(=O)OC)C14O2 (some centres not stated)	> 4 mM (inactive)
Cn1nnc2cc(CN)ccc21	> 4 mM (inactive)
O=C1C2CC=CCC2C(=O)N1c1ccccc1O (configuration not stated)	> 4 mM (inactive)
Cc1c(N=CN2CCOCC2)c(=O)n(C)c(=O)n1C	> 4 mM (inactive)
COC(=O)C1=CO[C@@H](O[C@@H]2O[C@H](CO)[C@@H](O)[C@H](O)[C@H]2O)[C@@H]2[C@@H](C)[C@@H](O)C[C@H]12	> 4 mM (inactive)
CC1(C)CC(=O)c2cnn(-c3nc4ccccc4[nH]3)c2C1	> 4 mM (inactive)
Clc1ccccc1OCCn1ccnc1	> 4 mM (inactive)
Nc1cccnc1Oc1ccc(F)cc1F	> 4 mM (inactive)
Nc1ccc(CCC(=O)O)cc1	> 4 mM (inactive)
COc1ccc2c(c1)=C(c1sc(N)nc1O)C(=O)N=2	> 4 mM (inactive)
CSc1ccc2nnc(-c3cccnc3)n2n1	> 4 mM (inactive)
O=C(Nc1ccc(N2CCOCC2)cc1)C1CC1	> 4 mM (inactive)
O=C(CSc1nc2ccccc2[nH]1)N1CCCCC1	> 4 mM (inactive)
Cc1nn(C)c(C)c1NC(=S)NC1CCCC1	> 4 mM (inactive)
O=C1Nc2ccccc2C12OCCO2	> 4 mM (inactive)
Nc1ncnc(NC2CCS(=O)(=O)C2)c1[N+](=O)[O-] (configuration not stated)	> 4 mM (inactive)
NC(=O)CSCc1ccc(Br)cc1	> 4 mM (inactive)

SMILES	Kd
COCC(=O)Nc1cccc2ccccc12	> 4 mM (inactive)
Cc1[nH]c2ccccc2c1C(=O)CSc1ncn[nH]1	> 4 mM (inactive)
O=C(NCc1ccncc1)c1cccc(F)c1	> 4 mM (inactive)
Cc1nc(-c2cnccn2)sc1C(=O)O	> 4 mM (inactive)
OCc1cc2ccccc2o1	> 4 mM (inactive)
CC(=O)C1CCC2C3CCC4C[C@H](O)CCC4(C)C3C[C@H](O)C12C (some centres not stated)	> 4 mM (inactive)
Cc1ccc2cccc(OC(=O)N3CCCC3)c2n1	> 4 mM (inactive)
C=C1C2CC[C@@]3(C)[C@H](c4ccoc4)OC(=O)C[C@]13O[C@H]1CC(=O)C(C)(C)[C@H](C(O)C(=O)OC)[C@@]21C (some centres not stated)	> 4 mM (inactive)
CC(=O)c1c(C)nc(-c2ccc(Cl)cc2Cl)n1O	> 4 mM (inactive)
COc1ccccc1NC(=O)CCC(=O)O	> 4 mM (inactive)
Cc1nnc(SCC(=O)NCc2ccccc2)[nH]c1=O	> 4 mM (inactive)
CS(=O)(=O)Cc1ccccc1	> 4 mM (inactive)
Cc1nc2ccccc2c2c1C(=O)N(C)C2=O	> 4 mM (inactive)
CCOC(=O)Cc1nc2ccccc2[nH]1	> 4 mM (inactive)
Cn1c(CN)nc2ccccc21	> 4 mM (inactive)
CC(=O)OC1CCC2(C)C3CC(=O)C4(C)C(CC5OC6(CCC(C)CO6)[C@@H](C)C54)C3CC[C@H]2C1 (some centres not stated)	> 4 mM (inactive)
COc1cc2c(cc1OC)-c1cc3ccc(OC)c(OC)c3c[n+]1CC2	> 4 mM (inactive)
O=C(O[C@@H]1Cc2c(O)cc(O)cc2O[C@@H]1c1cc(O)c(=O)c2c(O)c(O)cc([C@H]3Oc4cc(O)cc(O)c4C[C@H]3OC(=O)c3cc(O)c(O)c(O)c3)c2c1)c1cc(O)c(O)c(O)c1	> 4 mM (inactive)
NC(=O)CC1Sc2ccccc2NC1=O (configuration not stated)	> 4 mM (inactive)
O=c1c(O)c(-c2ccccc2)oc2ccccc12	> 4 mM (inactive)
Nc1cc2ccccc2cn1	> 4 mM (inactive)
